Assay results as given in PubChem BioAssay AID248 (DTP/NCI, 2004).
Where “and” joins values, the source holds several entries; their conditions need not be identical. Equal values may be shown once. Toxic doses and inconclusive results are not listed. Rule as the data show it: active = T/C of 150% or more; inactive = T/C below 125%.

Tested on: L1210 leukemia ip in BDF1 mice, survival T/C
Test: NCI In Vivo Anticancer Drug Screen. Data for tumor model L1210 Leukemia (intraperitoneal) in B6D2F1 (BDF1) mice
Details: endpoint: mean survival time, higher = longer survival
Outline: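 Value reflects the ratio of survival in compound-treated mice to survival in vehicle-treated controls, with both groups carrying the same transplanted tumor.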

[1] = dose: 12.5 mg/kg/injection, schedule: Q01DX009 (ip), vehicle: saline
[2] = dose: 12.5 mg/kg/injection, schedule: Q04DX003 (ip), vehicle: saline
[3] = dose: 25.0 mg/kg/injection, schedule: Q01DX009 (ip), vehicle: saline
[4] = dose: 25.0 mg/kg/injection, schedule: Q04DX003 (ip), vehicle: saline
[5] = dose: 50.0 mg/kg/injection, schedule: Q01DX009 (ip), vehicle: saline
[6] = dose: 50.0 mg/kg/injection, schedule: Q04DX003 (ip), vehicle: saline
[7] = dose: 100.0 mg/kg/injection, schedule: Q01DX001 (ip), vehicle: saline
[8] = dose: 200.0 mg/kg/injection, schedule: Q01DX001 (ip), vehicle: saline
[9] = dose: 100.0 mg/kg/injection, schedule: Q04DX002 (ip), vehicle: Klucel (hydroxypropylcellulose) (HPC)
[10] = dose: 100.0 mg/kg/injection, schedule: Q04DX003 (ip), vehicle: Klucel (hydroxypropylcellulose) (HPC)
[11] = dose: 200.0 mg/kg/injection, schedule: Q04DX003 (ip), vehicle: Klucel (hydroxypropylcellulose) (HPC)
[12] = dose: 400.0 mg/kg/injection, schedule: Q04DX003 (ip), vehicle: Klucel (hydroxypropylcellulose) (HPC)
[13] = dose: 6.25 mg/kg/injection, schedule: Q01DX009 (ip), vehicle: saline
[14] = dose: 100.0 mg/kg/injection, schedule: Q04DX003 (ip), vehicle: saline
[15] = dose: 100.0 mg/kg/injection, schedule: Q01DX001 (ip), vehicle: other

Measured: T/C

CCN(CC)C(=O)N1C2CCC1CN(C)C2
inactive: [1] 91 % of control | [2] 103 % of control | [3] 95 % of control | [4] 105 % of control | [5] 86 % of control | [6] 89 % of control

CNNc1cc(CO)cnc1SC
inactive: [7] 105 % of control | [8] 104 % of control

COc1ccc(OC)c(N(CCN2C(=O)c3ccccc3C2=O)C(=O)CCl)c1
inactive: dose: 25.0 mg/kg/injection, schedule: Q04DX002 (ip), vehicle: Klucel (hydroxypropylcellulose) (HPC) 97 % of control | dose: 50.0 mg/kg/injection, schedule: Q04DX002 (ip), vehicle: Klucel (hydroxypropylcellulose) (HPC) 90 % of control | [9] 97 % of control and 91 % of control

CN(C)c1ccc(CNc2cccc(Cl)c2Cl)cc1
inactive: [10] 94 % of control | [11] 96 % of control | [12] 97 % of control

O=C1c2ccccc2C(=O)N1Nc1ccccc1
inactive: dose: 5.0 mg/kg/injection, schedule: Q01DX001 (ip), vehicle: carboxymethylcellulose (CMC) 96 % of control | dose: 10.0 mg/kg/injection, schedule: Q01DX001 (ip), vehicle: carboxymethylcellulose (CMC) 113 % of control | dose: 20.0 mg/kg/injection, schedule: Q01DX001 (ip), vehicle: carboxymethylcellulose (CMC) 105 % of control | dose: 40.0 mg/kg/injection, schedule: Q01DX001 (ip), vehicle: carboxymethylcellulose (CMC) 111 % of control | dose: 80.0 mg/kg/injection, schedule: Q01DX001 (ip), vehicle: carboxymethylcellulose (CMC) 94 % of control | [9] 110 % of control | dose: 200.0 mg/kg/injection, schedule: Q04DX002 (ip), vehicle: Klucel (hydroxypropylcellulose) (HPC) 97 % of control | dose: 400.0 mg/kg/injection, schedule: Q04DX002 (ip), vehicle: Klucel (hydroxypropylcellulose) (HPC) 103 % of control

Cc1ncc(N)c2c1OC(C)(C)OC2
inactive: dose: 50.0 mg/kg/injection, schedule: Q01DX001 (ip), vehicle: saline 91 % of control

COc1cccc(OC)c1OCCCN1CCOCC1
inactive: dose: 25.0 mg/kg/injection, schedule: Q04DX003 (ip), vehicle: saline with Tween-80 99 % of control | dose: 50.0 mg/kg/injection, schedule: Q04DX003 (ip), vehicle: saline with Tween-80 100 % of control | dose: 100.0 mg/kg/injection, schedule: Q04DX003 (ip), vehicle: saline with Tween-80 94 % of control

N=c1ccc2nc3ccc(N)cc3sc-2c1
inactive: [13] 104 % of control | dose: 6.25 mg/kg/injection, schedule: Q04DX003 (ip), vehicle: saline 100 % of control | [1] 106 % of control | [2] 96 % of control | [3] 112 % of control | [4] 107 % of control | [5] 98 % of control | [6] 105 % of control | [14] 105 % of control

Cc1cc(C)c2ccc(Cl)nc2n1
inactive: dose: 25.0 mg/kg/injection, schedule: Q01DX009 (ip), vehicle: Klucel (hydroxypropylcellulose) (HPC) 97 % of control | dose: 50.0 mg/kg/injection, schedule: Q01DX009 (ip), vehicle: Klucel (hydroxypropylcellulose) (HPC) 99 % of control

CC(C)OC(=O)c1ccc(N)cc1S(N)(=O)=O
inactive: [15] 106 % of control

NCCc1cc2c3c(c1)CCCN3CCC2
inactive: dose: 0.78 mg/kg/injection, schedule: Q01DX009 (ip), vehicle: saline 95 % of control | dose: 1.56 mg/kg/injection, schedule: Q01DX009 (ip), vehicle: saline 102 % of control | dose: 3.12 mg/kg/injection, schedule: Q01DX009 (ip), vehicle: saline 91 % of control | [13] 97 % of control | dose: 12.5 mg/kg/injection, schedule: Q01DX001 (ip), vehicle: saline 100 % of control | dose: 25.0 mg/kg/injection, schedule: Q01DX001 (ip), vehicle: saline 94 % of control

COc1ccc(CC[N+]2=Cc3cc(OC)c(OC)cc3CC2)cc1OC
inactive: [5] 97 % of control | dose: 100.0 mg/kg/injection, schedule: Q01DX009 (ip), vehicle: saline 105 % of control | [14] 97 % of control | dose: 200.0 mg/kg/injection, schedule: Q04DX003 (ip), vehicle: saline 101 % of control

CCCCOP(=O)(C=C(C(C)=O)C(C)=O)OCCCC
inactive: [10] 95 % of control | [11] 119 % of control | [12] 97 % of control

CN(C)N=Nc1ccc(C(=O)N/N=C/c2ccc(Br)cc2)cc1
inactive: [10] 94 % of control | [11] 104 % of control | [12] 95 % of control

O=C1C(Cl)=C(Nc2ccc3cn[nH]c3c2)C(=O)c2ccccc21
inactive: dose: 50.0 mg/kg/injection, schedule: Q01DX001 (ip), vehicle: carboxymethylcellulose (CMC) 102 % of control | dose: 100.0 mg/kg/injection, schedule: Q01DX001 (ip), vehicle: carboxymethylcellulose (CMC) 100 % of control | dose: 200.0 mg/kg/injection, schedule: Q01DX001 (ip), vehicle: carboxymethylcellulose (CMC) 102 % of control

O=[N+]([O-])c1ccc(NN=C(C2CC2)C2CC2)c([N+](=O)[O-])c1
inactive: [15] 95 % of control | dose: 200.0 mg/kg/injection, schedule: Q01DX001 (ip), vehicle: other 98 % of control | dose: 400.0 mg/kg/injection, schedule: Q01DX001 (ip), vehicle: other 88 % of control

Cc1cc(NS(=O)(=O)c2ccc(N=Nc3c(N)[nH]c(=S)[nH]c3=O)cc2)nc(C)n1
inactive: [7] 96 % of control | [8] 100 % of control

CC[CH2][Sn]([CH2]C)([c]1ccccc1)[c]1ccccc1
inactive: dose: 100.0 mg/kg/injection, schedule: Q01DX001 (ip), vehicle: Klucel (hydroxypropylcellulose) (HPC) 97 % of control | dose: 200.0 mg/kg/injection, schedule: Q01DX001 (ip), vehicle: Klucel (hydroxypropylcellulose) (HPC) 106 % of control | dose: 400.0 mg/kg/injection, schedule: Q01DX001 (ip), vehicle: Klucel (hydroxypropylcellulose) (HPC) 101 % of control

Nc1nnc(N)c2ccccc12
inactive: dose: 100.0 mg/kg/injection, schedule: Q04DX002 (ip), vehicle: saline 100 % of control | dose: 200.0 mg/kg/injection, schedule: Q04DX002 (ip), vehicle: saline 96 % of control | dose: 400.0 mg/kg/injection, schedule: Q04DX002 (ip), vehicle: saline 102 % of control

Cc1ccc(N=Nc2ccc(C)cc2NC(=O)Nc2cc(Cl)ccc2C)cc1
inactive: dose: 100.0 mg/kg/injection, schedule: Q01DX009 (ip), vehicle: Klucel (hydroxypropylcellulose) (HPC) 93 % of control | dose: 200.0 mg/kg/injection, schedule: Q01DX009 (ip), vehicle: Klucel (hydroxypropylcellulose) (HPC) 94 % of control
